This is an account of results in patent US8323909B2, “Methods of identifying small molecules for renewals, survival and migration of cardiac progenitors” (The Regents of the University of California, priority 2006, dated 2012).

The experiment deals with isl1+ cardiac progenitor cells. The experiment is described as follows: Chemical compound screen with β-gal tagged isl1+ cardiac progenitors (luciferase/β-gal activity, β-gal+ cell count, isl1 immunohistochemistry). The experiment is classed as cell-based, mouse. From the text: The inventors developed an assay based on the β-gal tagged cardiac progenitors to identify small molecules and defined factors that can trigger the renewal of the cardiac progenitors (FIGS. 4A and 4B). The isl1-mER-Cre-mER knock-in mice were utilized to conditionally mark embryonic and post-natal isl1+ cardiac progenitors. Mice which are double heterozygous for the isl1-mER-Cre-mER and the R26R-indicator allele allow the purification of a relatively homogeneous population of isl1+ cardiac progenitors after amplification on mesenchymal feeder layers.
The β-gal substrate 6-O-β-galactopyranosyl-luciferin allows luciferase-mediated detection of light emission in genetically lacZ labelled cells in a high throughput manner (FIGS. 4A and 4B). 6-O-galactopyranosyl-luciferin is cleaved by (3-gal into D-Luciferin, which is processed by luciferase in an ATP-dependent step into Oxyluciferin and light.
After screening a small molecule library containing over 15,000 compounds, a series of compounds that can trigger the expression of lacZ activity as well as the induction of the isl1 protein in cultured cardiac progenitor preparations was identified.
The screen was based on three independent read-out systems. First, the chemical compound library was screened for luciferase activity, and thereby indirectly for β-gal activity of proliferating cells. Second, β-gar progenitor cells were counted within the mesenchymal feeder layers with and without compound treatment, and third, expression of the transcription factor isl1^+ per progenitor cell was screened in an immunohistochemically based analysis.

Turning to `O=C1Nc2cc(Br)ccc2/C1=C1/Nc2ccccc2/C1=N\O` [BIO, 6-bromoindirubin-3′-oxime], the “effect on the proliferation capacity of isl1+ cardiac progenitor cells” value is 50-80 fold. Besides, the β-galactosidase activity result (cardiac progenitor cells from isl1-mER-Cre-mER/R26R mice, after 4 days in culture, luciferase assay) is given as “significant increase”. Besides, the “β-gal+ progenitor cell number” value (cells counted within mesenchymal feeder layers with and without compound treatment) is “significant increase”. Further, where the note is “result in words (FIG. 5 legend)”, the “proliferation of isl1+ precursor cells” value was “significant increase”.
